This note sets out measurements from ChEMBL document CHEMBL2406991, “A novel series of metabotropic glutamate receptor 5 negative allosteric modulators based on a 4,5,6,7-tetrahydropyrazolo[1,5-a]pyridine core” (Bioorg Med Chem Lett, 2013).

Each structure is given as a SMILES string.

Test system in the first series: not listed separately
The series is described as follows: Intrinsic clearance in rat microsomes measured per mg of protein. The series is classed as ADME, Microsome.
Details: not given; call rule not given here
Broadly, the microsomal CLint is a measure of how fast metabolising enzymes remove a compound, apart from limits set by blood flow. `Cc1cc(C(=O)Nc2ccc(C#N)cn2)nn1C` displayed an intrinsic metabolic clearance (microsomal CLint) below 5 µL/min/mg.

Test system in a further series: not listed separately
Nature of the series: Intrinsic clearance in human microsomes measured per mg of protein. In kind it is ADME, Microsome.
Details: not given
In turn, `Cc1cc(C(=O)Nc2ccc(C#N)cn2)nn1C` had a microsomal CLint below 5 µL/min/mg.

The target of the next series is Metabotropic glutamate receptor 5 (Rattus norvegicus, UniProt P31424). Nature of the series: Negative allosteric modulation of rat mGluR5 receptor expressed in HEK293 cells assessed as intracellular calcium flux after 170 seconds by FLIPR assay. The conditions noted are these: hek293. The series is classed as functional, cell-based. (Calcium flux is commonly read through the fluorescence of an indicator in the cells.)
Chain of Metabotropic glutamate receptor 5 (P31424 whole entry): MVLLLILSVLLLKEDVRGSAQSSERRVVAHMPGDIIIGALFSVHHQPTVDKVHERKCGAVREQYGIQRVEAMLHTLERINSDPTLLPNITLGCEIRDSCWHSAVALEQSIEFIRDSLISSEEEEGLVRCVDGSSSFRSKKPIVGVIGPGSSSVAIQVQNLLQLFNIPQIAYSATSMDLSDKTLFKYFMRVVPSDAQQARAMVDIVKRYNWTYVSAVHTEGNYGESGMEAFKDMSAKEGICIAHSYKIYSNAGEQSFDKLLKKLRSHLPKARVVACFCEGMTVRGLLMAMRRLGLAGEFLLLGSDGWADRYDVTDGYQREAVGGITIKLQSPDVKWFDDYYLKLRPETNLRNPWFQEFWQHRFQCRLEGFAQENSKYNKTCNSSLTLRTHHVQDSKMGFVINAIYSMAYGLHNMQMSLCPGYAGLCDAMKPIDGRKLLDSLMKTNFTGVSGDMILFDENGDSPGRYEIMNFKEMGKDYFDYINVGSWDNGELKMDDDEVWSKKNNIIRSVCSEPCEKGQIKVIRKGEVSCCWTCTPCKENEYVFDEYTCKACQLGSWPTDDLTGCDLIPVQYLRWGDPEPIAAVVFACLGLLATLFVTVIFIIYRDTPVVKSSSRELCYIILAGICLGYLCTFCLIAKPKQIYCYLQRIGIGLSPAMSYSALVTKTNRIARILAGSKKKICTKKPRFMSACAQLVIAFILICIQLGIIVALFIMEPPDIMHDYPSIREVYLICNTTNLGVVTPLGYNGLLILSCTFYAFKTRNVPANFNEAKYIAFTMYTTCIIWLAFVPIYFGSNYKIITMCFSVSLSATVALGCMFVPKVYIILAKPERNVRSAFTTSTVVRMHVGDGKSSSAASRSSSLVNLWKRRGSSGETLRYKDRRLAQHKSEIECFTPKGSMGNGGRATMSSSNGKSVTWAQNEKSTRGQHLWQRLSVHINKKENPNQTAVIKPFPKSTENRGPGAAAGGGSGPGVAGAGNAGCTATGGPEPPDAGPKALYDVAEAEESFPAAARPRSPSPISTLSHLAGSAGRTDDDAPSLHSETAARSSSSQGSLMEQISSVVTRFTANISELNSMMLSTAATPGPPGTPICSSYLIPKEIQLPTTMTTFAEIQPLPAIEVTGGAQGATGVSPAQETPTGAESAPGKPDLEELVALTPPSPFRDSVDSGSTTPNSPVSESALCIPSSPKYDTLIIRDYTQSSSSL
Usually IC50 stands for the concentration at which inhibition is half-maximal. For `Nc1ccc(NC(=O)c2cc3n(n2)CCCC3)nc1`, the IC50 result was “Not Active”.
As to `Cc1ccnc(NC(=O)c2cc3n(n2)CCCC3)c1`, the IC50 result is given as “Not Active”.
Regarding `N#Cc1cccnc1NC(=O)c1cc2n(n1)CCCC2`, the IC50 entry is listed as “Not Active”.
As for `Cc1cccnc1NC(=O)c1cc2n(n1)CCCC2`, the IC50 entry was “Not Active”.
On to `COc1cccc(NC(=O)c2cc3n(n2)CCCC3)n1`, for which the IC50 result is given as “Not Active”.
Still for that read-out and setting: under `Nc1cccc(COc2cc3n(n2)CCCC3)n1` stands “Not Active”; under `N#Cc1ccnc(NC(=O)c2cc3n(n2)CCCC3)c1`, “Not Active”; under `O=C(Nc1cccc(C(F)(F)F)n1)c1cc2n(n1)CCCC2`, “Not Active”.
In the case of `c1ccc(COc2cc3n(n2)CCCC3)cc1`, the IC50 entry is on record as “Not Active”.
On the same count and under the same terms, under `Cc1cccnc1-c1cc2n(n1)CCCC2` stands “Not Active”; under `Cc1cccc(NC(=O)c2cc3n(n2)CCCC3)n1`, “Not Active”.
Same read-out and setting: under `CN(C(=O)c1cc2n(n1)CCCC2)c1ccccn1` stands “Not Active”.
The same measure, in the same setting: the value for `N#Cc1ccccc1COc1cc2n(n1)CCCC2` was “Not Active”.
As to `CC(=O)c1ccc(COc2cc3n(n2)CCCC3)nc1`, the IC50 result is recorded as “Not Active”.
Still for that read-out and setting: under `COc1cccnc1NC(=O)c1cc2n(n1)CCCC2` stands “Not Active”.

The same series, now with this note: read-out: IC50.
`Clc1ccc(-c2cc3n(n2)CCCC3)cc1`: the IC50 came to 4230 nM.
The same measure, in the same setting: the value for `N#Cc1ccc(NC(=O)c2cc3ccccn3n2)nc1` was 1810 nM; that for `Cc1cccc(-c2cc3n(n2)CCCC3)n1` was 1240 nM; that for `Cc1cc(C(=O)Nc2ccc(C#N)cn2)nn1C` was 2620 nM.
For `N#Cc1ccc(CC(=O)c2nn3c(c2C(F)(F)F)CCCC3)nc1`, the IC50 amounted to 7180 nM.
As for `Clc1ccccc1-c1cc2n(n1)CCCC2`, the IC50 is 2650 nM.
`COc1cccc(-c2cc3n(n2)CCCC3)c1`: the IC50 worked out at 4500 nM.
On the same count and under the same terms, the value for `O=C(Cc1ccccn1)c1cc2n(n1)CCCC2` was 390 nM.
In the case of `c1ccc(-c2cc3n(n2)CCCC3)cc1`, the IC50 came to 1890 nM.
As for `Fc1cccc(-c2cc3n(n2)CCCC3)c1`, the IC50 was determined as 1570 nM.
As to `FC(F)(F)c1cccc(-c2cc3n(n2)CCCC3)c1`, the IC50 amounted to 3990 nM.
In the case of `Clc1ccnc(COc2cc3n(n2)CCCC3)c1`, the IC50 is above 10000 nM.
The same measure, in the same setting: under `Cc1ccnc(-c2cc3n(n2)CCCC3)c1` stands 3080 nM; under `Nc1cccnc1NC(=O)c1cc2n(n1)CCCC2`, above 10000 nM; under `Clc1cccc(COc2cc3n(n2)CCCC3)n1`, 5900 nM.
In the case of `c1ccc(COc2cc3n(n2)CCCC3)nc1`, the IC50 came to 2500 nM.
Same read-out and setting: the value for `N#Cc1ccc(COc2cc3n(n2)CCCC3)cc1` was 1610 nM; that for `Cc1cccc(COc2cc3n(n2)CCCC3)c1` was 769 nM; that for `N#Cc1ccc(-c2cc3n(n2)CCCC3)nc1` was above 10000 nM.
Same read-out and setting: the value for `Clc1ccc(-c2cc3n(n2)CCCC3)nc1` was 669 nM; that for `N#Cc1ccc(CC(=O)c2nn3c(c2C#N)CCCC3)nc1` was 5380 nM; that for `O=C(Nc1ccccn1)c1cc2n(n1)CCCC2` was 364 nM.
The same measure, in the same setting: under `Clc1ccc(COc2cc3n(n2)CCCC3)nc1` stands 1550 nM; under `O=C(Nc1ccc(Cl)cn1)c1cc2n(n1)CCCC2`, 262 nM.
For `O=C(Nc1ncccc1O)c1cc2n(n1)CCCC2`, the half-maximal inhibitory concentration (IC50) is above 10000 nM.
Still for that read-out and setting: the value for `O=C(Nc1cccc(F)n1)c1cc2n(n1)CCCC2` was 4740 nM; that for `Clc1ccnc(-c2cc3n(n2)CCCC3)c1` was 675 nM.
On the same count and under the same terms, the value for `Cc1ccc(-c2cc3n(n2)CCCC3)nc1` was 3000 nM; that for `Clc1cccc(-c2cc3n(n2)CCCC3)n1` was 1520 nM.

The target of another series is Metabotropic glutamate receptor 5 (Rattus norvegicus) (UniProt P31424). The series is described as follows: Inhibition of rat mGluR5 receptor expressed in HEK293 cells at 30 uM relative to control. In kind it is cell-based.
Chain of Metabotropic glutamate receptor 5 (Rattus norvegicus) (P31424 21-1203 limits assumed): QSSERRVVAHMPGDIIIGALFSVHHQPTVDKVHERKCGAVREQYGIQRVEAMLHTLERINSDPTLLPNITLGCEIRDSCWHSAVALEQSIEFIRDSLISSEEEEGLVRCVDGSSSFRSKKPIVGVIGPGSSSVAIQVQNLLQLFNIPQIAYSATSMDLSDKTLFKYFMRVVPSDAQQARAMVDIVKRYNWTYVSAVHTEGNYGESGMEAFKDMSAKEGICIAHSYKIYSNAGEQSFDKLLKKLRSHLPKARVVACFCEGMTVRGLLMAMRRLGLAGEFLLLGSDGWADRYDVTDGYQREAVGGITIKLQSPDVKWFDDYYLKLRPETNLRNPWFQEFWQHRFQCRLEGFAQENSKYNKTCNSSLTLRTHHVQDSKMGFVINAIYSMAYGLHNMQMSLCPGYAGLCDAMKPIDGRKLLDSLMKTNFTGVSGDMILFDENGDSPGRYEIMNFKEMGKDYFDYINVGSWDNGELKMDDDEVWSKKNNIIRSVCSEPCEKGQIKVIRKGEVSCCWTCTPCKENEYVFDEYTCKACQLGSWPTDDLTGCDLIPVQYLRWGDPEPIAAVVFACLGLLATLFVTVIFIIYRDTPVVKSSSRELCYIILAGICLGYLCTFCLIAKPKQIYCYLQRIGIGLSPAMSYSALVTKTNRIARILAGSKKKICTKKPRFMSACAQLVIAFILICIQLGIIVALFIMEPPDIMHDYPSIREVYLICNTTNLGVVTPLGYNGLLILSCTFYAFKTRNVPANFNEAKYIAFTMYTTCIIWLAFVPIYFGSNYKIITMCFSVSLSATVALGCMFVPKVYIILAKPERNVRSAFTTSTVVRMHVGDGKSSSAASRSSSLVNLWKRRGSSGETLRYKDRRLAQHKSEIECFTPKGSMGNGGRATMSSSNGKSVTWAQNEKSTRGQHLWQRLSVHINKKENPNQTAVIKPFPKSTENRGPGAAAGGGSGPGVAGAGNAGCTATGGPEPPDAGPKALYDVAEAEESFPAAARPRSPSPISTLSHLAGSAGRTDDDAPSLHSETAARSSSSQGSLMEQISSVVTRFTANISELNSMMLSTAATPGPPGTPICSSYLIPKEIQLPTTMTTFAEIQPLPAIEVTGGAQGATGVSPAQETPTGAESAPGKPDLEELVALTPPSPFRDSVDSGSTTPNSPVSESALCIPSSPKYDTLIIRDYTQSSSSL
Details: not given
In general, inhibition refers to how much of the control response was suppressed. Consider `Cc1cc(C(=O)Nc2ccc(C#N)cn2)nn1C`, for which the inhibition was above 99%.
